Assay results as given in the NIST ThermoML archive (doi:10.1016/j.tca.2018.07.026).

How the values were obtained:
[1] = Crystal, Transpiration method
[2] = molar heat capacity at constant pressure; settings: 101.33 kPa, Crystal, DSC

N#Cc1ccc2ccccc2c1 [2-naphthalenecarbonitrile]
Settings | molar heat capacity at constant pressure, [2] [J/K/mol] | vapor or sublimation pressure, [1] [kPa]
313.8 K | 182.1 | –
314.4 K | 182.8 | –
314.9 K | 183.3 | –
315.3 K | 183.7 | –
315.5 K | – | 0.00091
315.8 K | 184.2 | –
316.3 K | 184.6 | –
316.8 K | 185 | –
317.3 K | 185.3 | –
317.8 K | 185.4 | –
318.2 K | 185.5 | –
318.4 K | – | 0.00122
318.7 K | 185.9 | –
319.2 K | 186.1 | –
319.6 K | 186.3 | –
320.1 K | 186.6 | –
320.5 K | 186.8 | 0.00152
320.9 K | 187.1 | –
321.4 K | 187.4 | –
321.8 K | 187.5 | –
322.2 K | 187.8 | –
322.4 K | – | 0.00195
322.7 K | 188.1 | –
323.1 K | 188.4 | –
323.5 K | 188.6 | –
323.9 K | 188.9 | –
324.4 K | 189.1 | –
324.5 K | – | 0.00237
324.8 K | 189.5 | –
325.2 K | 189.8 | –
325.6 K | 190.2 | –
326 K | 190.7 | –
326.4 K | 191.2 | 0.00284
326.8 K | 191.5 | –
327.1 K | 191.8 | –
328.2 K | – | 0.0035
331.3 K | – | 0.00463
333.2 K | – | 0.00579
334.2 K | – | 0.00641

O=C(O)c1ccccc1 [benzoic acid]
[2]
Settings | molar heat capacity at constant pressure [J/K/mol]
318.8 K | 122.9
319.2 K | 127.1
319.7 K | 130.8
320.1 K | 134.3
320.6 K | 137.7
321 K | 140.7
321.4 K | 143.4
321.9 K | 146.1
322.3 K | 148.4
322.7 K | 150.5
323.1 K | 152.4
323.5 K | 154.1
324 K | 155.6
324.4 K | 157
324.8 K | 158.3
325.2 K | 159.5
325.6 K | 160.4
326 K | 161.3
326.4 K | 162
326.8 K | 162.7
327.2 K | 163.4
327.6 K | 163.9
328 K | 164.3
328.3 K | 164.8
328.7 K | 165.1
329.1 K | 165.3
329.5 K | 165.6
329.9 K | 165.7
330.3 K | 165.9
330.6 K | 166
331 K | 166.3
331.4 K | 166.3
331.8 K | 166.4
332.1 K | 166.4
332.5 K | 166.4
332.9 K | 166.5
333.3 K | 166.5
333.6 K | 166.5
334 K | 166.6
334.4 K | 166.6
334.8 K | 166.5
335.1 K | 166.6
335.5 K | 166.7
335.9 K | 166.7
336.2 K | 166.7
336.6 K | 166.7
337 K | 166.7
337.3 K | 166.7
337.7 K | 166.9
338.1 K | 166.9
338.5 K | 167
338.8 K | 167.1
339.2 K | 167.2
339.6 K | 167.3
339.9 K | 167.4
340.3 K | 167.5
340.7 K | 167.6
341 K | 167.7
341.4 K | 167.8
341.8 K | 167.9
342 K | 168

c1ccc2ccccc2c1 [naphthalene]
[1]
Settings | vapor or sublimation pressure [kPa]
288.2 K | 0.00418
290.7 K | 0.00548
293.2 K | 0.00698
298.2 K | 0.01114
303.2 K | 0.01811
308 K | 0.02903
313.1 K | 0.04408
318.2 K | 0.0671
323.1 K | 0.102
328.1 K | 0.1538
330.5 K | 0.1867
333 K | 0.2235
